Article PMC2867956, “Interdomain Interactions Control Ca^2+-Dependent Potentiation in the Cation Channel TRPV4” (PLoS ONE, 2010)
Like-named read-outs stand apart in the source and are kept apart here. No end group written: not given here.

What was measured:
CaM = CaM (UniProt P0DP23); assay: Fluorescence polarization, CaM binding to carboxyfluorescein-labeled TRPV4 peptides; settings: 50 mM Tris pH 7.5, 100 mM KCl, 0.1% BSA, triplicate
Description: Protein interaction experiments were performed in buffers containing 50 mM Tris, pH 7.5, 100 mM KCl, 0.1% BSA and calcium at the indicated concentrations. Calcium concentrations below 50 µM were buffered with HEDTA, EGTA or EDTA at a buffer concentration of 10 mM. CaM concentrations were 10 µM or as indicated; the tracer peptide concentration was 100 nM. Fluorescence anisotropy was measured in a 384-well black multititer plate (Fluotrac 200, Greiner) using a Fusion alpha FP instrument (PerkinElmer) at 1 s reading time per well. Fluorescence polarization (FP) was calculated according to: [drawing 1] with Ipar and Iperp as the fluorescence emission intensities in planes parallel and perpendicular to the excitation plane. FP signals are given as mean±SEM of triplicate measurements in milli-P (mP) units.
(0.11 MB TIF) Click here for additional data file.

TRPV4 C2 fragment = assay: AlphaScreen interdomain interaction with C2; type: binding, human
From the text: First, we did a complementation experiment to test whether a CaM molecule that binds to the C2 fragment of TRPV4 through its C-lobe can form an additional interaction with another CaM binding domain thus forming a ternary complex. […] We used an AlphaScreen-based proximity assay (Fig. 2, Methods S1) in which the acceptor beads were coated with the C-terminal fragment C2-Flag, and the donor beads either with the N-terminal CaM binding peptide P2-biotin, or, as a negative control, with C2-biotin. The interaction between the proteins was measured in the presence of increasing CaM concentrations in 100 µM Ca^2+ or 1 mM EGTA (Fig. 3A).
In an AlphaScreen interaction experiment, donor and acceptor beads were incubated with 10 nM C2-biotin and N2-Flag at concentrations ranging from 30 pM to 1.5 µM, respectively (Fig. 3C).
Proteins were expressed in E. coli, affinity purified and biotinylated if applicable (for details see Methods S1). For protein interaction measurements, a proximity assay system based on the AlphaScreen technology (PerkinElmer) was used (see Methods S1). Briefly, streptavidin-coated AlphaScreen donor and anti-Flag acceptor beads at a final concentration of 16.7 µg/ml were incubated in a 384-well plate format (OptiPlate-384, PerkinElmer) with C2-GST-biotin or P2-biotin and the respective Flag-tagged interaction protein at concentrations of 10 nM, if not otherwise indicated. Assay buffer conditions were 50 mM Tris, pH 7.4, 100 mM KCl, and 0.1% BSA. After incubation for 90 min at room temperature, the AlphaScreen output signal was recorded in a Fusion alpha FP instrument (PerkinElmer) at 2 s reading time per well. AlphaScreen signals are given as mean±SEM in counts per second (cps) units.
The expression plasmids containing the cDNA for CaM or TRPV4 fragments in the pGEX-2TK vector (Amersham) or a modified derivative that contains an in-frame Flag epitope 5’ to the multiple cloning site were transformed into the BL21(DE3) Escherichia coli host, and protein expression was induced by 200 mg/ml IPTG at an OD600 of 0.6. […] The GST-Flag fusion proteins were eluted with 50 mM Tris, pH 8.5, 100 mM KCl, and 10 mM glutathione. […] The purity of all proteins was confirmed by SDS-polyacrylamide gel electrophoresis and Coomassie staining, and the protein concentration determined by the method according to Bradford using an albumin concentration standard. […]
To establish an improved interaction assay, that allows the quantification of protein interactions on a medium to high throughput scale, a commercially available proximity assay system based on the AlphaScreen (Amplified Luminescent Proximity Homogenous Assay) technology (PerkinElmer) was modified. […]

[1] = labeled peptide 100 nM, CaM 10 µM or as indicated, value is Ca^2+ concentration, read-out: Ca^2+ concentration at half-maximal CaM binding (Ca^2+-dependence, EC50)

Compound	EC50 (CaM; [1]) [µM]	interaction with C2-Flag (TRPV4 C2 fragment; 100 µM Ca^2+ or 1 mM EGTA, absence of CaM (C2: absence or presence of CaM))	Ca^2+-dependence of P2/C2 interaction (TRPV4 C2 fragment; no CaM, Ca^2+ 10 nM to 10 mM)	EC50 (CaM; tracer peptide 100 nM, CaM 0.1 nM to 10 µM, read-out: CaM binding EC50) [µM]
CC(C)C[C@H](NC(=O)[C@H](CCCNC(=N)N)NC(=O)CNC(=O)[C@@H](NC(=O)[C@@H](NC(=O)[C@H](Cc1c[nH]cn1)NC(=O)[C@H](CO)NC(=O)[C@H](Cc1ccccc1)NC(=O)CN)[C@@H](C)O)C(C)C)C(=O)N[C@@H](CCCNC(=N)N)C(=O)N[C@@H](CCCNC(=N)N)C(=O)N[C@@H](CC(=O)O)C(=O)N[C@@H](CCCNC(=N)N)C(=O)N[C@@H](Cc1c[nH]c2ccccc12)C(=O)N[C@@H](CO)C(=O)N[C@@H](CO)C(=O)N[C@H](C(=O)N[C@H](C(=O)N1CCC[C@H]1C(=O)N[C@@H](CCCNC(=N)N)C(=O)N[C@H](C(=O)N[C@H](C(=O)N[C@@H](CCC(=O)O)C(=O)O)C(C)C)C(C)C)C(C)C)C(C)C [P5]	3.2	–	–	–
GRPNLRMKFQGAFRKGVPNP [P1]	3.6	–	–	–
SSDNKRWRKKIIEKQPQSPK [P2]	–	strong constitutive interaction	already present at 0 Ca^2+ and essentially Ca^2+-insensitive over a wide range of Ca^2+ concentrations	–
RSFPVFLRKAFRSGEMVTVGKSSD [P4]	7.3	–	–	5
